Data published in PubChem BioAssay (NCI).
Values joined by “and” are separate entries in the source; they are usually repeats but may differ in a detail not shown here. Identical values can stand only once.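 Compound exposure: 48 hours, 5 concentrations, 96-well plates. Here, GI50 denotes the concentration required for 50% inhibition of growth. TGI: total growth inhibition.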

What was measured:
Experiment in all cases: growth of human tumour cells (NCI), 48 h
[1] = system: T-47D breast
[2] = system: M14 melanoma
[3] = system: OVCAR-5 ovarian
[4] = system: MDA-MB-231 breast
[5] = system: A498 renal
[6] = system: NCI-H522 lung
[7] = system: OVCAR-8 ovarian
[8] = system: SK-MEL-28 melanoma
[9] = system: CCRF-CEM leukemia
[10] = system: COLO 205 colon

SMILES | TGI [1] | TGI [2] | TGI [3] | TGI [4] | TGI [5] | TGI [6] [µM] | TGI [7] | TGI [8] | TGI [9] | TGI [10] [µM] | GI50 [2] | GI50 [9] [nM] | GI50 [10] [nM] | GI50 [3] | GI50 [4] | GI50 [5] | GI50 [6] [nM] | GI50 [7] | GI50 [8] | GI50 [1]
CC(CO)[C@H]1OC(=O)C=C2[C@@]13O[C@@H]3[C@H]1OC(=O)[C@@]3(C)[C@H]4O[C@H]4C[C@@]2(C)[C@@H]13 (stereo partly drawn) | > 46.1 µM | > 22.8 µM | > 87.9 µM | > 29.6 µM | > 29.4 µM | 5.38 | 9.02 µM | > 100 µM |  |  |  |  |  |  |  |  |  |  |  | 
Nc1c(C(=O)Nc2ccc([As](=O)(O)O)cc2)cnc2nnnn12 | > 100 µM | > 100 µM | > 100 µM | > 100 µM | > 100 µM | > 100 | > 100 µM | > 100 µM | > 100 µM | > 100 |  |  |  |  |  |  |  |  |  | 
Cc1ccc(C(=O)/C(=C/c2ccc([N+](=O)[O-])cc2)S(=O)Cc2ccccc2)cc1 (stereo not drawn) |  | 2.94 µM | 3.61 µM | 2.77 µM | 3.4 µM | 2.9 | 3.23 µM | 3.15 µM | > 100 µM | 3.16 | 1480 nM | 396 | 1470 | 1.69 µM | 1.19 µM | 1750 nM | 1460 | 1.36 µM | 1.66 µM | 
COC(=O)c1nc(NN)[nH]c(=O)c1CCCCCc1c(C(=O)OC)[nH]c(NN)cc1=O |  | > 100 µM | > 100 µM |  | > 100 µM | > 100 | > 100 µM | > 100 µM | > 100 µM | > 100 |  |  |  |  |  |  |  |  |  | 
CC(=O)c1cccc(N(/C=C/C(=O)C(F)(F)F)CC(=O)c2ccc(Cl)cc2)c1 | > 100 µM | > 100 µM | > 100 µM | > 100 µM | > 100 µM | > 100 | > 100 µM | > 100 µM | > 100 µM | > 100 | > 100000 nM | > 100000 | > 100000 | > 100 µM | > 100 µM | > 100000 nM | > 100000 | > 100 µM | > 100 µM | > 100 µM
COc1ccc(C(=O)N2c3ccccc3Sc3ccccc32)c(F)c1 | > 100 µM | > 100 µM | > 100 µM | > 100 µM | 8.68 µM | > 100 | > 100 µM | > 100 µM | > 100 µM | 26.8 | 371 nM | 522 | 445 | 3.66 µM | 3.52 µM | 330 nM | 403 | 2.2 µM | 1.64 µM | 0.639 µM
CN1C2CC(C#N)C1C=CC2=O (stereo not drawn) | 45.1 µM and > 100 µM | 30.7 µM and > 100 µM | 37.3 µM and > 100 µM | 40.7 µM and > 100 µM | 35 µM and > 100 µM |  | 70.9 µM and > 100 µM | 36.7 µM and > 100 µM | 29.9 µM and > 100 µM |  | 15900 nM and > 100000 nM |  |  | 19.6 µM and > 100 µM | 19.7 µM and > 100 µM | 17500 nM and > 100000 nM |  | 24.5 µM and > 100 µM | 17.8 µM and > 100 µM | 17.5 µM and > 100 µM
Cc1ccc(C(=O)Nc2ccc(CN3CCN(C)CC3)c(C(F)(F)F)c2)cc1C#Cc1cnc(N)c2ccc(F)cc12 | 3.68 µM | 0.441 µM | 2.7 µM | 0.905 µM | 0.961 µM | 0.723 | 2.37 µM | 0.918 µM | 1.82 µM | 0.933 | 88.1 nM | 398 | 301 | 0.694 µM | 0.353 µM | 327 nM | 214 | 0.297 µM | 0.41 µM | 0.77 µM
CC12CC3(C)CC(C)(C1)CC(N=[N+]=[N-])(C2)C3 |  | > 100 µM | > 100 µM |  | > 100 µM | > 100 | > 100 µM | > 100 µM | > 100 µM | > 100 |  |  |  |  |  |  |  |  |  | 
O=C(CC(C(=O)c1cccs1)c1ccc2c(c1)OCO2)c1ccc(Br)cc1 (stereo not drawn) | > 100 µM | > 100 µM |  | > 100 µM | > 100 µM |  | > 100 µM | > 100 µM | > 100 µM | > 100 |  |  |  |  |  |  |  |  |  | 
Cc1cc2c(C(C)C)c(O)c(O)c(C=Nc3cc(C(F)(F)F)ccc3Cl)c2c(O)c1-c1c(C)cc2c(C(C)C)c(O)c(O)c(C=Nc3cc(C(F)(F)F)ccc3Cl)c2c1O | > 100 µM | > 100 µM | > 100 µM | > 100 µM | > 100 µM | 45.4 | > 100 µM | > 100 µM | > 100 µM | 90.5 |  |  |  |  |  |  |  |  |  | 
O=C(O)c1cc[c]([Hg][S]c2ncnc3nc[nH]c23)cc1 | 36.7 µM | 14 µM | 29 µM | 21 µM | > 87.1 µM | 8.24 | 25.3 µM | 32 µM | 21.8 µM | 26.9 | 2180 nM | 4550 | 12400 | 14.1 µM | 6.59 µM | > 35300 nM | 1080 | 4.44 µM | 17.4 µM | 4.52 µM
COc1cc2cc(Oc3ccc(NC(=O)c4cccc(C(F)(F)F)c4)cc3)c(C)nc2cc1OC | > 100 µM | > 100 µM | > 100 µM | 46.6 µM | 65 µM | > 100 | > 100 µM | > 100 µM |  | > 100 | 4020 nM |  | 4650 | > 100 µM | 3.38 µM | 1780 nM | 2810 | 6.91 µM | 6.61 µM | 3.23 µM
CC1(C)N=C(N)N=C(N)N1c1ccc(CCc2ccccc2)c(Cl)c1 | 13 µM | 13.7 µM | 19.7 µM | 19.9 µM | 15 µM | 12.7 | 13.6 µM | 15.9 µM | 15.3 µM | 6.83 | 124 nM | 59.7 | 69.4 | 0.19 µM | 1.09 µM | 788 nM | 236 | 0.0897 µM | 0.391 µM | 0.698 µM
COC(=O)c1ccc2c(c1)C(NC(C)=O)CCc1cc(OC)c(OC)c(OC)c1-2 (stereo not drawn) | > 100 µM | > 31.6 µM | > 95.9 µM | > 100 µM | 4.27 µM | 0.074 | 9.1 µM | > 100 µM | > 35.6 µM | 0.0194 |  |  |  |  |  |  |  |  |  | 
